The text below walks through data of patent US20100041892A1, “Therapeutic agent for diabetes” (priority 2005, published 2010).

By melting point is commonly meant the temperature of the solid-liquid transition.

For the compound `CCCCN(C(=O)CCc1ccc(OCCOC)cc1Oc1ncc(C(F)(F)F)cc1Cl)S(N)(=O)=O` [Example 212, N-(aminosulfonyl)-N-butyl-3-[2-{[3-chloro-5-(trifluoromethyl)pyridin-2-yl]oxy}-4-(2-methoxyethoxy)phenyl]propanamide], the melting point was in the range of 102 to 103 °C.
As for `COCOc1cc(/C=C/S(=O)(=O)NC(=O)OC(C)(C)C)n(Cc2ccc(Cl)cc2Cl)n1` [Example 200, tert-butyl-({(E)-2-[1-(2,4-dichlorobenzyl)-3-(methoxymethoxy)-1H-pyrazol-5-yl]vinyl}sulfonyl)carbamate], the melting point lay within 139 to 140 °C.
As for `COCCOc1ccc(/C=C/C(=O)NS(=O)(=O)c2ccccc2Cl)c(Oc2ncc(C(F)(F)F)cc2Cl)c1` [Example 235, (2E)-N-[(2-chlorophenyl)sulfonyl]-3-[2-{[3-chloro-5-(trifluoromethyl)pyridin-2-yl]oxy}-4-(2-methoxyethoxy)phenyl]acrylamide], the figure is 168 to 169 °C; as for `CC(C)CCS(=O)(=O)NC(=O)/C=C/c1cc(OC2CCOCC2)nn1Cc1ccc(Cl)cc1Cl` [Example 117, (2E)-3-[1-(2,4-dichlorobenzyl)-3-(tetrahydro-2H-pyran-4-yloxy)-1H-pyrazol-5-yl]-N-[(3-methylbutyl)sulfonyl]acrylamide], 143 to 144 °C.
As for `CCCCCS(=O)(=O)NC(=O)CCc1ccc(OCCOC)cc1OCC1CC1` [Example 167, 3-[2-(cyclopropylmethoxy)-4-(2-methoxyethoxy)phenyl]-N-(pentylsulfonyl)propanamide], the figure is 81.7 to 82.8 °C.
In the case of `COCCOc1ccc(/C=C/COC(=O)NS(=O)(=O)NCCN2CCCC2)c(Oc2ncc(C(F)(F)F)cc2Cl)c1` [Example 434, (2E)-3-[2-{[3-chloro-5-(trifluoromethyl)pyridin-2-yl]oxy}-4-(2-methoxyethoxy)phenyl]prop-2-en-1-yl {[(2-pyrrolidin-1-ylethyl)amino]sulfonyl}carbamate] it was 154 to 156 °C; in that of `COCCOc1ccc(CCCOC(=O)NS(=O)(=O)c2ccc(C)cc2)c(Oc2ncc(C(F)(F)F)cc2Cl)c1.O` (hydrate or solvate) [Example 30, 3-[2-{[3-chloro-5-(trifluoromethyl)pyridin-2-yl]oxy}-4-(2-methoxyethoxy)phenyl]propyl [(4-methylphenyl)sulfonyl]carbamate monohydrate], 118 to 120 °C; in that of `CCCCCS(=O)(=O)NC(=O)CCc1ccc(OCCOC)cc1OC1CCCCC1` [Example 164, 3-[2-(cyclohexyloxy)-4-(2-methoxyethoxy)phenyl]-N-(pentylsulfonyl)propanamide], 64.1 to 65.4 °C.
Compound `CC(C)Oc1cc(CCC(=O)NS(=O)(=O)c2ccccc2)n(Cc2ccc(Cl)cc2Cl)n1` [Example 82, 3-[1-(2,4-dichlorobenzyl)-3-isopropoxy-1H-pyrazol-5-yl]-N-(phenylsulfonyl)propanamide] had a melting point of 184 to 185 °C.
`CC(C)CCS(=O)(=O)NC(=O)/C=C/c1cc(OC2CCOCC2)nn1Cc1ccc(C(F)(F)F)cc1Cl` [Example 153, (2E)-3-[1-[2-chloro-4-(trifluoromethyl)benzyl]-3-(tetrahydro-2H-pyran-4-yloxy)-1H-pyrazol-5-yl]-N-[(3-methylbutyl)sulfonyl]acrylamide] showed a melting point of 149.5 to 152.5 °C.
Turning to `CCCCCS(=O)(=O)NC(=O)/C=C/c1cc(OC2CCOCC2)nn1Cc1ccc(Cl)cc1Cl` [Example 116, (2E)-3-[1-(2,4-dichlorobenzyl)-3-(tetrahydro-2H-pyran-4-yloxy)-1H-pyrazol-5-yl]-N-(pentylsulfonyl)acrylamide], the melting point is 154 to 157 °C.
On to `CCCCN(C)C(=O)OCCCc1ccc(OCCOC)cc1Oc1ncc(C(F)(F)F)cc1Cl` [Example 50, 3-[2-{[3-chloro-5-(trifluoromethyl)pyridin-2-yl]oxy}-4-(2-methoxyethoxy)phenyl]propyl butyl(methyl)carbamate], for which the melting point is 54 to 55.2 °C.
As for `CCCCCS(=O)(=O)NC(=O)/C=C/c1cc(OCCOC)nn1Cc1ccc(C(F)(F)F)cc1Cl` [Example 149, (2E)-3-[1-[2-chloro-4 (trifluoromethyl)benzyl]-3-(2-methoxyethoxy)-1H-pyrazol-5-yl]-N-(pentylsulfonyl)acrylamide], the figure is 130.5 to 132.5 °C; as for `CCCCOc1cc(/C=C/C(=O)NS(=O)(=O)CCC(C)C)n(Cc2ccc(C(F)(F)F)cc2Cl)n1` [Example 150, (2E)-3-{3-butoxy-1-[2-chloro-4-(trifluoromethyl)benzyl]-1H-pyrazol-5-yl}-N-[(3-methylbutyl)sulfonyl]acrylamide], 89.5 to 90.5 °C.
In the case of `CCCCOc1cc(CCS(=O)(=O)NC(=O)OCC(C)(C)C)n(Cc2ccc(Cl)cc2Cl)n1` [Example 140, 2,2-dimethylpropyl ({2-[3-butoxy-1-(2,4-dichlorobenzyl)-1H-pyrazol-5-yl]ethyl}sulfonyl)carbamate] it was 116 to 118 °C; in that of `CCCCCS(=O)(=O)NC(=O)/C=C/c1ccc(OCC2CCCO2)cc1Oc1ncc(C(F)(F)F)cc1Cl` (stereo not drawn) [Example 195, (2E)-3-[2-{[3-chloro-5-(trifluoromethyl)pyridin-2-yl]oxy}-4-(tetrahydrofuran-2-ylmethoxy)phenyl]-N-(pentylsulfonyl)acrylamide], 126.5 to 128.5 °C.
For `CCCCOc1cc(CCS(=O)(=O)NC(=O)OCc2ccccc2)n(Cc2ccc(Cl)cc2Cl)n1` [Example 136, benzyl ({2-[3-butoxy-1-(2,4-dichlorobenzyl)-1H-pyrazol-5-yl]ethyl}sulfonyl)carbamate], the melting point lay within 99 to 101 °C.
In the case of `COCCOc1ccc(CCCOC(=O)NS(=O)(=O)NCCc2ccccc2)c(Oc2ncc(C(F)(F)F)cc2Cl)c1` [Example 206, 3-[2-{[3-chloro-5-(trifluoromethyl)pyridin-2-yl]oxy}-4-(2-methoxyethoxy)phenyl]propyl {[(2-phenylethyl)amino]sulfonyl}carbamate], the melting point lay in the range of 110 to 113 °C.
With `COCCOc1ccc(/C=C(\C)C(=O)NS(=O)(=O)CC(F)(F)F)c(Oc2ncc(C(F)(F)F)cc2Cl)c1` [Example 244, (2E)-3-[2-{[3-chloro-5-(trifluoromethyl)pyridin-2-yl]oxy}-4-(2-methoxyethoxy)phenyl]-2-methyl-N-[(2,2,2-trifluoroethyl)sulfonyl]acrylamide], the melting point was 159 to 159.5 °C.
As to `CCCCCS(=O)(=O)NC(=O)/C=C/c1ccc(OCC(COC(C)C)OC(C)=O)cc1Oc1ncc(C(F)(F)F)cc1Cl` (stereo not drawn) [Example 455, 2-(3-{[3-chloro-5-(trifluoromethyl)pyridin-2-yl]oxy}-4-{(1E)-3-oxo-3-[(pentylsulfonyl)amino]prop-1-en-1-yl}phenoxy)-1-(isopropoxymethyl)ethyl acetate], the melting point was 101 to 103 °C.
In the case of `CCCCCS(=O)(=O)NC(=O)CCc1ccc(OCCC2(C)OCCO2)cc1Oc1ncc(C(F)(F)F)cc1Cl` [Example 425, 3-{2-{[3-chloro-5-(trifluoromethyl)pyridin-2-yl]oxy}-4-[2-(2-methyl-1,3-dioxolan-2-yl)ethoxy]phenyl}-N-(pentylsulfonyl)propanamide] it was 96.5 to 97.5 °C.
`CCCCOc1cc(CCS(=O)(=O)NC(=O)OCc2ccccc2)n(Cc2ccc(Cl)cc2Cl)n1` [Example 138, benzyl ({2-[3-butoxy-1-(2,4-dichlorobenzyl)-1H-pyrazol-5-yl]ethyl}sulfonyl)carbamate] showed a melting point of 92 to 95 °C.
As for `CCCCCS(=O)(=O)NC(=O)/C=C/c1ccc(OCCOC)cc1NC(=O)c1ccc(F)cc1F` [Example 191, 2,4-difluoro-N-(5-(2-methoxyethoxy)-2-{(1E)-3-oxo-3-[(pentylsulfonyl)-amino]prop-1-en-1-yl}phenyl)benzamide], the melting point is 140 to 140.8 °C.
For the compound `CCCCCS(=O)(=O)NC(=O)/C=C/c1ccc(OCCOC)cc1Nc1ccc(C(F)(F)F)cc1Cl` [Example 184, (2E)-3-[2-{[2-chloro-4-(trifluoromethyl)phenyl]amino}-4-(2-methoxyethoxy)phenyl]-N-(pentylsulfonyl)acrylamide], the melting point lay in the range of 173.5 to 174.8 °C.
For `COCCOc1ccc(/C=C/C(=O)NS(=O)(=O)c2ccc(C)cc2)c(Oc2ncc(C(F)(F)F)cc2Cl)c1` [Example 236, (2E)-3-[2-{[3-chloro-5-(trifluoromethyl)pyridin-2-yl]oxy}-4-(2-methoxyethoxy)phenyl]-N-[(4-methylphenyl)sulfonyl]acrylamide], the melting point fell in the range of 102.5 to 106.5 °C.
Compound `CCOCCNC(=O)OCCCc1ccc(OCCOC)cc1Oc1ncc(C(F)(F)F)cc1Cl` [Example 56, 3-[2-{[3-chloro-5-(trifluoromethyl)pyridin-2-yl]oxy}-4-(2-methoxyethoxy)phenyl]propyl (2-ethoxyethyl)carbamate] yielded a melting point of 66 to 68 °C.
The compound `CC(C)Oc1cc(/C=C/S(=O)(=O)NC(=O)OC(C)(C)C)n(Cc2ccc(Cl)cc2Cl)n1` [Example 124, tert-butyl ({(E)-2-[1-(2,4-dichlorobenzyl)-3-isopropoxy-1H-pyrazol-5-yl]vinyl}sulfonyl)carbamate] displayed a melting point of 152 to 153 °C.
In the case of `CCCCOc1cc(CCS(=O)(=O)NC(=O)OCCOC)n(Cc2ccc(Cl)cc2Cl)n1` [Example 134, 2-methoxyethyl ({2-[3-butoxy-1-(2,4-dichlorobenzyl)-1H-pyrazol-5-yl]ethyl}sulfonyl)carbamate] it was 82 to 86 °C; in that of `C/C(=C\c1ccc(OC(C)C)cc1Oc1ncc(C(F)(F)F)cc1Cl)C(=O)NS(=O)(=O)NCCc1ccccn1` [Example 471, (2E)-3-(2-{[3-chloro-5-(trifluoromethyl)pyridin-2-yl]oxy}-4-isopropoxyphenyl)-2-methyl-N-{[(2-pyridin-2-ylethyl)amino]sulfonyl}acrylamide], 121 to 123 °C.
As for `COCCOc1ccc(CCC(=O)NS(=O)(=O)c2ccc(OC)cc2)c(Oc2ncc(C(F)(F)F)cc2Cl)c1` [Example 7, 3-[2-{[3-chloro-5-(trifluoromethyl)pyridin-2-yl]oxy}-4-(2-methoxyethoxy)phenyl]-N-[(4-methoxyphenyl)sulfonyl]propanamide], the figure is 118 to 120 °C.
